These results are taken from patent publication US20040053847A1, “Diastereomeric peptitdes and pharmaceutical compositions comprising them” (priority 2000, published 2004).

Series [1] deals with pepsin (from porcine stomach mucosa) (Sus scrofa, UniProt P00791). In words: in vitro. To be noted: pig, pH 7.3. The procedure: (§1) In order to reach their target, the diastereomers have to withstand proteolytic digestion by proteases which may occur during the time of their administration site till they reach the target site. The susceptibility of the diastereomer 2 of the invention Is to proteolytic digestion by pepsin (from porcine stomach mucosa, Sigma), trypsin (from bovine pancreas, Sigma), and elastase (from human leukocytes, Sigma) was assessed by reverse-phase HPLC. As a control we used the native, all L-amino acid antimicrobial peptide cecropin B. Equal amounts of the peptides were dissolved in PBS (35 mM phosphate buffer/0.15 M NaCl, pH 7.3) at final concentration of 140 μM to which 25 μM of protease were added. The samples were incubated under agitation for 30 min at 37° C. After the addition of the appropriate protease inhibitor to stop the reaction, aliquots were injected to C18 column and the amounts of the intact diastereomers were evaluated using their absorbance at 215 nm.
Chain of pepsin (from porcine stomach mucosa) (P00791 60-385): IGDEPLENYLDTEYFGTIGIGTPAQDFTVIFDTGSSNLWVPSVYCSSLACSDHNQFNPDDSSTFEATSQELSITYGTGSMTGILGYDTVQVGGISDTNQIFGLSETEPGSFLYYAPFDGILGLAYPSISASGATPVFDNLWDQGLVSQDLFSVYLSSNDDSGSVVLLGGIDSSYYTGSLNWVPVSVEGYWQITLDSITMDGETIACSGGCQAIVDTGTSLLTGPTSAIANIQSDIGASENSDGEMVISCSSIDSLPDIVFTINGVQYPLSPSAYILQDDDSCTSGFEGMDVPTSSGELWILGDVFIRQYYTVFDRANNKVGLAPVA

In series [2] the target is trypsin (from bovine pancreas) (Bos taurus, UniProt P00760). The series can be described thus: in vitro. To be noted: pH 7.3. As to the method:
as §1

The test system of the next series is Mycoplasma pneumoniae. The class given is cell-based. The settings on record: 1 h. The procedure: In order to examine the activity of the diastereomers of the invention against mycoplasma, 500 μl of Mycoplasma pneumoniae cells were introduced into a cell culture flask containing 50 ml of SP-4 growth media (Jacob et al., 1985). The cells were grown at 37° C. for 3-4 days. Before the assay, the mycoplasma cells were washed 3 times with serum-free medium (without fetal calf serum) and then harvested into 5 ml of the same medium. The cells' concentration was adjusted to approximately 1×10^6 cells ml^−1. Thereafter, 150 μl of either diastereomer 1 or 2 in phosphate-buffered saline (PBS) were added to 150 μl mycoplasma cells. The mixture was incubated for 1 hour at room temperature. As a control, cells were incubated with PBS alone. At the end of the incubation period, 150 μl of the mixture were inoculated into tissue culture flasks (in duplicate) containing 15 ml SP-4 media. After 3-4 days, the mycoplasma viability was determined by counting the number of cells grown in each flask.

The target of series [3] is T1, elastase (from human leukocytes) (Homo sapiens, UniProt P08246).
T1 construct: elastase (from human leukocytes, Sigma); purchased Sigma; host or cells: human leukocytes (cell-derived)
T1 sequence (P08246 30-247 limits assumed): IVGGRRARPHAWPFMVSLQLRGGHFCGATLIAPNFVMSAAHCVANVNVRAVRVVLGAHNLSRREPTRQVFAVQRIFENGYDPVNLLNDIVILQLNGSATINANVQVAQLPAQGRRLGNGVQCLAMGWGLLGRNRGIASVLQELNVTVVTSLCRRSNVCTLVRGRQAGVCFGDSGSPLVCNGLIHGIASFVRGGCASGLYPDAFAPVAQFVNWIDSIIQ
In words: Proteolytic digestion assessed by reverse-phase HPLC. The class given is in vitro ADME.

Series [4] deals with B16 F10 mouse melanoma cell line. In words: In vitro anticancer activity, Trypan blue cell viability, LC50. As to the method: (§2) The anticancer activity of the diastereomers 1, 2, 8, 9 and 10 was examined against B16 F10 mouse melanoma cell line. Melanoma cells were grown in RPMI-1640 medium supplemented with 10% fetal calf serum and antibiotics, at 37° C., in humidified atmosphere at 5% CO2 and 95% air. In addition, the cell-selectivity of the diastereomeric peptides was studied by examining their effect on NIH-3T3 normal fibroblasts cell line. NIH-3T3 mouse fibroblasts cells were grown in DMEM medium supplemented with 10% bovine calf serum and antibiotics under the same conditions as described above for B16 F10 mouse melanoma cells. Melanoma cells (2×10^5 cells ml^−1) or NIH-3T3 cells (2.5×10^5 cells ml^−1) were seeded in tissue culture plates (3.5 cm). After 48 h, cells were washed thrice with the corresponding medium. Then the cells were incubated at 37° C. in medium (without serum and antibiotics) in the presence of the tested diastereomeric peptides dissolved in PBS, at different concentrations. […] Following 24 h of incubation, the cells were harvested with trypsin (0.25%)-EDTA (0.05%) and centrifuiged for 10 min at 270×g. The precipitated cells were suspended in the corresponding medium and counted in a hemocytometer (Neubauer). Cell viability was determined by Trypan blue dye exclusion.

Series [5] deals with Cryptococcus neoformans ATCC 66031. The class given is cell-based. The procedure:
(§3) The antifungal activity of the diastereomers was examined in sterile 96-well plates (Nunc F96 microtiter plates) in a final volume of 200 μL as follows: 100 μl of a suspension containing fungi at concentration of 1×10^4 Colony-Forming Units (CFU)/ml in culture medium (RPMI 1640, 0.165 M MOPS pH 7.0, with L-glutamine, without NaHCO3) was added to 100 μl of water containing the peptide in serial 2-fold dilutions in water. The fungi were incubated in the presence of the diastereomeric peptides for 24-48 h at 35° C. in a Binder KB115 incubator under agitation. Growth inhibition was determined by measuring the absorbance at 620 nm with a Microplate autoreader E1309 (Bio-tek Instruments). Antifungal activity is expressed as the minimal inhibitory concentration (MIC), the concentration at which 100% inhibition of growth was observed after the incubation time mentioned above. The fungi used were: Aspergillus niger ATCC 9642, Candida albicans ATCC 10231 and Cryptococcus neoformans ATCC 66031.

Series [6] relates to Candida albicans ATCC 10231. The class given is cell-based. As to the method:
as §3

The subject of series [7] is Aspergillus niger ATCC 9642. The class given is cell-based. As to the method: as §3
The nature of series [8]: Cell selectivity, Trypan blue cell viability, LC50. The class given is cell-based, mouse. The settings on record: 50% cell mortality after 24 h incubation, medium without serum, read-out: Lethal Concentration (LC50), NIH-3T3 fibroblasts.
Series [9] is described as follows: In vitro anticancer activity, Trypan blue cell viability, LC50. The procedure:
as §2

In series [10] the test system is vancomycin-resistant Enterococcus faecium (VRE) ATCC 700221. In kind it is cell-based. As to the method:
(§4) The antibacterial activity of the peptides was examined in sterile 96-well plates (Nunc F96 microtiter plates) in a final volume of 100 μl as follows: Aliquots (50 μl) of a suspension containing bacteria at concentration of 1×10^6 Colony-Forming Units (CFU)/ml in culture LB (Lauria broth) medium were added to 50 μl of water containing the peptide in serial 2-fold dilutions in water. Inhibition of growth was determined by measuring the absorbance at 600 nm with a Microplate autoreader E1309 (Bio-tek Instruments), after an incubation time of 18-20 h at 37° C. Antibacterial activities were expressed as the minimal inhibitory concentration (MIC), the concentration at which 100% inhibition of growth was observed after 18-20 h of incubation. The bacteria used were: Escherichia coli ATCC 25922, Acinetobacter baumannii ATCC 19606, Pseudomonas aeruginosa ATCC 27853, Staphylococcus aureus ATCC 6538P, Enterococcus faecalis ATCC 29212, Enterobacter cloacae ATCC 49141. The antibacterial activity of peptides 2 and 6 was also examined against resistant bacteria: methicilin-resistant Staphylococcus aureus ([…]) ATCC 700698 and vancomycin-resistant Enterococcus faecium (VRE) ATCC 700221.

The test system of series [11] is methicilin-resistant Staphylococcus aureus (MRSA) ATCC 700698. The class given is cell-based. The procedure:
as §4

Molecules are shown by their SMILES. ≈ marks a conversion by molar mass, not a printed value. Read-outs that look alike come from different tables or passages of the source. Square brackets hold non-standard residues; d marks the D form. Peptide text beside a SMILES is read from it. Bounds are passed on as bounds.

Chain of trypsin (from bovine pancreas) (P00760 24-246): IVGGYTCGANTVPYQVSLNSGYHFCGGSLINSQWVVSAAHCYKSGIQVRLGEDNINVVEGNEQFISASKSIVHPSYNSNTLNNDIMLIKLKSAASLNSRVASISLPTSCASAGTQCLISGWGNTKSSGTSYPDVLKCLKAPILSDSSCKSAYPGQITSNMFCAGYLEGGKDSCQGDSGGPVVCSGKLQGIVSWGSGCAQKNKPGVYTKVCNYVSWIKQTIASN

`CC(C)C[C@H](NC(=O)[C@H](CCCCN)NC(=O)[C@H](CC(C)C)NC(=O)[C@@H](CC(C)C)NC(=O)[C@H](CC(C)C)NC(=O)[C@@H](N)CCCCN)C(=O)N[C@@H](CC(C)C)C(=O)N[C@H](CCCCN)C(=O)N[C@H](CCCCN)C(=O)N[C@@H](CC(C)C)C(=O)N[C@@H](CC(C)C)C(=O)N[C@@H](CCCCN)C(=O)N[C@H](CC(C)C)C(=O)N[C@@H](CC(C)C)C(=O)N[C@@H](CCCCN)C(N)=O` [Peptide 2, [D]-L^3,13,K^8,9-K6L9] (H-KL[dL]LKLL[dK][dK]LLK[dL]LK-NH2): the metabolised at 0.5 h, 140 μM came to 10% in [1]; 32% in series [2]; 6% in series [3] (isolated enzyme elastase, pH 7.3). Besides, the “MIC against Mycoplasma” value against Mycoplasma pneumoniae was 12.5 µg/mL (≈ 6.93 µM). In addition, the “Lethal Concentration (LC50), B16-F10 melanoma” value in series [4] (50% cell mortality after 24 h incubation, medium without serum) worked out at 9 µg/mL. The “MIC, C. neoformans ATCC 66031” value in series [5] amounted to 1.4 µg/mL (≈ 0.776 µM). Besides, the “MIC, C. albicans ATCC 10231” value in series [6] came to 100 µg/mL (≈ 55.4 µM). In addition, the “MIC, A. niger ATCC 9642” value in [7] was 50 µg/mL (≈ 27.7 µM). Also, the CC50 at 24 h in [8] (mouse, NIH-3T3 fibroblasts) worked out at 30 µg/mL (≈ 16.6 µM).
Turning to `CC(C)C[C@H](NC(=O)[C@H](CCCCN)NC(=O)[C@@H](CC(C)C)NC(=O)[C@@H](CC(C)C)NC(=O)[C@H](CC(C)C)NC(=O)[C@@H](N)CCCCN)C(=O)N[C@@H](CC(C)C)C(=O)N[C@H](CC(C)C)C(=O)N[C@@H](CCCCN)C(=O)N[C@H](CC(C)C)C(=O)N[C@@H](CC(C)C)C(=O)N[C@@H](CCCCN)C(N)=O` [Peptide 1, [D]-L^3,4,8,10-K4L8, reference compound] (H-KL[dL][dL]KLL[dL]K[dL]LK-NH2; N-terminus assumed), the “MIC against Mycoplasma” value against Mycoplasma pneumoniae turned out to be 50 µg/mL (≈ 34.8 µM). For the same molecule, the CC50 in series [9] was 90 µg/mL (≈ 62.7 µM). Besides, the “Selectivity between melanoma and NIH-3T3 cell lines” value in series [4] (B16 F10 vs NIH-3T3) was “active against both cell lines at similar concentration”. Moreover, in series [5], the “MIC, C. neoformans ATCC 66031” value stood at 4.7 µg/mL (≈ 3.28 µM). In series [6], the “Activity against C. albicans” value is “inactive” and the “MIC, C. albicans ATCC 10231” value was more than 200 µg/mL. In [7], the “Activity against A. niger” value is “inactive” and the “MIC, A. niger ATCC 9642” value is more than 200 µg/mL. Besides, in series [8], the CC50 came out at 100 µg/mL (≈ 69.7 µM).
In the case of `CC(C)C[C@H](NC(=O)[C@H](CC(C)C)NC(=O)[C@@H](CCCCN)NC(=O)[C@@H](CCCCN)NC(=O)[C@H](CC(C)C)NC(=O)[C@@H](CC(C)C)NC(=O)[C@H](CCCNC(=N)N)NC(=O)[C@H](CC(C)C)NC(=O)[C@@H](CC(C)C)NC(=O)[C@H](CC(C)C)NC(=O)[C@@H](N)CCCCN)C(=O)N[C@@H](CCCNC(=N)N)C(=O)N[C@H](CC(C)C)C(=O)N[C@@H](CC(C)C)C(=O)N[C@@H](CCCCN)C(N)=O` [Peptide 6, [D]-L^3,6,13,K^8,9-K4R2L9] (H-KL[dL]LR[dL]L[dK][dK]LLR[dL]LK-NH2; N-terminus assumed), the “Activity against resistant bacteria VRE” value in series [10] is on record as “highly active”. The “Activity against resistant bacteria MRSA” value in series [11] was “highly active”. Also, in [5], the “MIC, C. neoformans ATCC 66031” value was 1.5 µg/mL (≈ 0.806 µM). In addition, the “MIC, C. albicans ATCC 10231” value in series [6] came to 150 µg/mL (≈ 80.6 µM). In [7], the “MIC, A. niger ATCC 9642” value amounted to 200 µg/mL (≈ 107 µM).
Consider `CC[C@H](C)[C@H](NC(=O)CNC(=O)[C@H](CC(N)=O)NC(=O)[C@H](CCCNC(=N)N)NC(=O)[C@@H](NC(=O)[C@H](CC(N)=O)NC(=O)[C@H](CCCNC(=N)N)NC(=O)CNC(=O)[C@H](CCSC)NC(=O)[C@H](CCCCN)NC(=O)[C@H](CCC(=O)O)NC(=O)[C@@H](NC(=O)[C@H](CCCCN)NC(=O)[C@H](CCCCN)NC(=O)[C@H](Cc1ccccc1)NC(=O)[C@@H](NC(=O)[C@H](CCCCN)NC(=O)[C@H](Cc1c[nH]c2ccccc12)NC(=O)[C@@H](N)CCCCN)C(C)C)[C@@H](C)CC)[C@@H](C)CC)C(=O)N[C@H](C(=O)N[C@@H](CCCCN)C(=O)N[C@@H](C)C(=O)NCC(=O)N1CCC[C@H]1C(=O)N[C@@H](C)C(=O)N[C@H](C(=O)N[C@@H](C)C(=O)N[C@H](C(=O)N[C@@H](CC(C)C)C(=O)NCC(=O)N[C@@H](CCC(=O)O)C(=O)N[C@@H](C)C(=O)N[C@@H](CCCCN)C(=O)N[C@@H](C)C(=O)N[C@@H](CC(C)C)C(N)=O)C(C)C)[C@@H](C)CC)C(C)C` [Cecropin B, cecropin B, reference compound] (H-KWKVFKKIEKMGRNIRNGIVKAGPAIAVLGEAKAL-NH2), for which the metabolised at 0.5 h, 140 μM in series [1] amounted to 100%; in [2], 100%; in series [3] (elastase from human leukocytes, 140 μM peptide, 25 μM protease, 30 min at 37° C., PBS pH 7.3, read-out: Proteolytic digestion, Elastase), 100%.
